Data published in patent publication US20120041195A1, “Heterocyclic compounds” (FOVEA PHARMACEUTICALS, priority 2009, published 2012).

Assays:
[1] = Solubility in aqueous medium (buffer pH 5); format: physicochemical; conditions: acetic acid/KOH buffer pH 5, stirred 24 h at room temperature, HPLC/UV of supernatant
Experimental: Solubility of Compounds was determined in aqueous medium using the following procedure.
Two mg of Compound (2 mg) was added to 200 μl buffer (acetic acid/KOH) solution at pH 5. Solution was then stirred for 24 h at room temperature and then centrifuged 10 min at 16,000 rpm. Corresponding supernatants were analyzed by HPLC and UV detection. Calculation of a given Compound concentration was performed by reporting area under the experimental slope onto a calibration slope obtained separately using DMSO-solubilised Compound at different concentrations.

Colour of compound = format: physicochemical
[2] = test system: VEGF-induced blood-retinal barrier breakdown; experiment: Inhibition of vascular leakage in a rat model of blood-retinal barrier breakdown; format: in vivo; conditions: intravitreal VEGF164 100 ng, 0.58% (5.8 mg/ml buffer pH 5) topical 10 μl six times over 27 h, Evans blue in retina
Experimental: We investigated the efficacy of topical administration of compound 5 of the invention in reducing the retinal leakage in a VEGF-induced blood-retinal barrier breakdown in the rat. Rats were treated by a single intravitreal injection of 5 μl (100 ng) recombinant rat VEGF164 (RD systems) into each eye.
During twenty-seven hours following VEGF injection, 0.58% test compound 5 of the invention (5.8 mg/ml buffer pH 5) and control without compound of the invention were administered six times by topical administration (10 μl) in eyes of sixteen rats.
Twenty-seven hours after the VEGF challenge, Evans blue dye (45 mg/kg) was injected intravenously and the dye was allowed to circulate during two hours.
Then, each rat was infused with 0.05M citrate buffer pH 3.5 (37° C.) for 2 minutes to allow clearance of the dye. Immediately after said perfusion, both eyes were enucleated and Evans blue dye was extracted by incubating each retina in formamide (Qaum et al Invest. Ophthalmol. Vis. Sci. 2001, Vol 42, No 10). Afterward, the absorbance was measured with a spectrophotometer at 620 nm.
Breakdown of the blood-retinal barrier was proportional to the concentration of Evans blue in the retina normalized by Evans blue concentrations in the plasma.

Row | Structure (SMILES) | Soiubility (pH 5) in mg/ml [1] [mg/ml] | Solubility (pH 5) in % [1] [%] | Colour (Colour of compound) | reduction of vascular leakage compared to control [2] [%]
1 | Cl.Oc1ccc(Cl)c(-c2ccc3nc(Nc4ccc(OCCN5CCCC5)cc4)nn3c2)c1 [compound 5, 4-Chloro-3-{2-[4-(2-pyrrolidin-1-yl-ethoxy)-phenylamino]-[1,2,4]triazolo[1,5-a]pyridin-6-yl}-phenol, hydrochloride] | 5.4 | 0.3 | Colourless | 71
2 | CN(C)[C@@H]1CCN(C(=O)COc2ccc(Nc3nc4ccc(-c5cc(O)ccc5Cl)cn4n3)cc2)C1.Cl [compound 6, 2-{4-[6-(2-Chloro-5-hydroxy-phenyl)-[1,2,4]triazolo[1,5-a]pyridin-2-ylamino]-phenoxy}-1-((R)-3-dimethylamino-pyrrolidin-1-yl)-ethanone, hydrochloride] | 0.9 | 0.1 | Colourless | –
3 | O=C1N(CCN2CCCC2)CCN1c1ccc(Nc2nc3ccc(-c4cc(O)ccc4Cl)cn3n2)cc1 [compound 7, 1-{4-[6-(2-Chloro-5-hydroxy-phenyl)-[1,2,4]triazolo[1,5-a]pyridin-2-ylamino]-phenyl}-3-(2-pyrrolidin-1-yl-ethyl)-imidazolidin-2-one] | 0.22 | 0.022 | Colourless | –
4 | Cc1cc(-c2cc(O)ccc2Cl)cn2nc(Nc3ccc(OCCN4CCCC4)cc3)nc12.Cl [compound 9, 4-Chloro-3-{8-methyl-2-[4-(2-pyrrolidin-1-yl-ethoxy)-phenylamino]-[1,2,4]triazolo[1,5-a]pyridin-6-yl}-phenol, hydrochloride] | 1 | 0.1 | Colourless | –
5 | Cl.Oc1ccc(Cl)c(-c2ccn3nc(Nc4ccc(OCCN5CCCC5)cc4)nc3c2)c1 [compound 10, 4-Chloro-3-{2-[4-(2-pyrrolidin-1-yl-ethoxy)-phenylamino]-[1,2,4]triazolo[1,5-a]pyridin-7-yl}-phenol, hydrochloride] | 2 | 0.2 | Colourless | –
6 | Oc1ccc(Cl)c(-c2ccc3nc(Nc4cccc(OCCN5CCOCC5)c4)nn3c2)c1 [compound 12, 4-Chloro-3-{2-[3-(2-morpholin-4-yl-ethoxy)-phenylamino]-[1,2,4]triazolo[1,5-a]pyridin-6-yl}-phenol] | 0.2 | 0.02 | Colourless | –
7 | CN(C)CCOc1ccc(Nc2nc3ccc(-c4cc(O)ccc4Cl)cn3n2)cc1 [compound 14, 4-Chloro-3-{2-[4-(2-dimethylamino-ethoxy)-phenylamino]-[1,2,4]triazolo[1,5-a]pyridin-6-yl}-phenol] | >10 | >1 | Colourless | –
8 | CN(C)CCOc1cccc(Nc2nc3ccc(-c4cc(O)ccc4Cl)cn3n2)c1 [compound 15, 4-Chloro-3-{2-[3-(2-dimethylamino-ethoxy)-phenylamino]-[1,2,4]triazolo[1,5-a]pyridin-6-yl}-phenol] | 0.7 | 0.07 | Colourless | –
9 | Oc1ccc(Cl)c(-c2ccc3nc(Nc4cccc(OCCN5CCCC5)c4)nn3c2)c1 [compound 16, 4-Chloro-3-{2-[3-(2-pyrrolidin-1-yl-ethoxy)-phenylamino]-[1,2,4]triazolo[1,5-a]pyridin-6-yl}-phenol] | 0.1 | 0.01 | Colourless | –
